Test results: US8962842B2, “2-pyridone antimicrobial compositions” (priority 2010, dated 2015)
Read-outs that look alike come from different tables or passages of the source.

Assays:
[1] = test system: Acinetobacter baumannii (12 strains); assay: MIC range, broader panel of Quotient Bioresearch strains (Table 4); assay type: cell-based
[2] = Metabolic stability in liver microsomes +/- S9 fraction (Table 8); assay type: in vitro ADME; settings: 1 μM
Procedure: Metabolic stability of a select number of examples was tested in liver microsomes+/−addition of S9 fraction as described by Kuhnz, W. and Gieschen, H. (1998), Drug Metab. Dispos., 1120-1127. Test concentration was 1 μM and HPLC/MS-MS was used for detection.

[3] = test system: Enterococcus faecium (3 strains); assay: MIC range, broader panel of Quotient Bioresearch strains (Table 3)
[4] = target: bacterial topoisomerase IV (Escherichia coli, UniProt P0AFI2+P20083); assay: Inhibition of topoisomerases activity in vitro, Topogen protocol TG1007 (Table 7); assay type: biochemical
Chain of bacterial topoisomerase IV (P20083 whole entry): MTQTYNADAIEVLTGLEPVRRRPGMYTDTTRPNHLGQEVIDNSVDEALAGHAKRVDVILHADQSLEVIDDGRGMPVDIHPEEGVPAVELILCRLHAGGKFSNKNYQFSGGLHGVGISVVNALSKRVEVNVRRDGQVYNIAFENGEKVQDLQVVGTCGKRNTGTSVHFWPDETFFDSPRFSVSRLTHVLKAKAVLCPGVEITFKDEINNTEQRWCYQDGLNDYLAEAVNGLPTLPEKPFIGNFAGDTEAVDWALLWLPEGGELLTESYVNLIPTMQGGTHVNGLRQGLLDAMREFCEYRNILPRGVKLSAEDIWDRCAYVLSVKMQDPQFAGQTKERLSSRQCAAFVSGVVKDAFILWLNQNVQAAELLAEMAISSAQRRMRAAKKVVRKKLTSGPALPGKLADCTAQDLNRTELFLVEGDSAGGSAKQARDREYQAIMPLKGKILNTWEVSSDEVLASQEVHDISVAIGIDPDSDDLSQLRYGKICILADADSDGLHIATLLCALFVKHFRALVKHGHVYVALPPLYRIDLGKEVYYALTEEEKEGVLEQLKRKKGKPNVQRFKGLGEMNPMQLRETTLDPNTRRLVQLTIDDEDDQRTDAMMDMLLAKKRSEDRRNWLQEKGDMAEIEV
Chain of bacterial topoisomerase IV (P0AFI2 whole entry): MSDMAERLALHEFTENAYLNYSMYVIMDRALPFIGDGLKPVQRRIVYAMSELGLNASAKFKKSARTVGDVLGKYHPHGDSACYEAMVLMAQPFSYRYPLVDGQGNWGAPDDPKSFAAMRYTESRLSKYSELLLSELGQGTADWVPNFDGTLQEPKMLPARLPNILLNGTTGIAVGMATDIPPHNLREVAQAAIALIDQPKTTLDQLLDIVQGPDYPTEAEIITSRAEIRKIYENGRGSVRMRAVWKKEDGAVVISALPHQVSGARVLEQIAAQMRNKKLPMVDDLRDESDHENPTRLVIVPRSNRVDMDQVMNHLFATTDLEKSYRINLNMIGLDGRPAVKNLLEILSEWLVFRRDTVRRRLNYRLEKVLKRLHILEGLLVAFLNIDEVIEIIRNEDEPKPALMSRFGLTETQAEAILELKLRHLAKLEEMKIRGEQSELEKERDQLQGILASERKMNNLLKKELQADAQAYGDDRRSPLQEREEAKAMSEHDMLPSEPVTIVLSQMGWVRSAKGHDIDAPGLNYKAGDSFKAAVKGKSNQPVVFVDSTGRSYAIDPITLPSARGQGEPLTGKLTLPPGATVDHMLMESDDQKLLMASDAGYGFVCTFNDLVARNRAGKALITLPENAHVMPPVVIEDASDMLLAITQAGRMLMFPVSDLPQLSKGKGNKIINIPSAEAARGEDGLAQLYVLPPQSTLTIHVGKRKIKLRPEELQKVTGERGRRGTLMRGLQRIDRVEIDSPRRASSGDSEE

[5] = test system: Klebsiella pneumonia (4 strains); assay: MIC range, broader panel of Quotient Bioresearch strains (Table 4); assay type: cell-based; settings: Klebsiella pneumoniae
physchem = assay type: physicochemical; settings: thermodynamic from solid
Procedure: The solutions were incubated at room temperature for 24 hours before quantification by HPLC detection. Aqueous solubility was evaluated in simulated gastric fluid (SGF), simulated intestinal fluid (SIF) and phosphate buffer saline (PBS) pH 7.4. Aqueous solubility is expressed in Table 11 as mean solubility in μM.

[6] = test system: Pseudomonas aeruginosa (12 strains); assay: MIC range, broader panel of Quotient Bioresearch strains (Table 4); assay type: cell-based
[7] = test system: Acinetobacter baumannii, quinolone-resistant strains (Quotient Bioresearch catalogue); assay: MIC against pathogens resistant against quinolones (Table 5); assay type: cell-based; settings: Acinetobacter baumannii, GN54
[8] = test system: Streptococcus pneumonia (5 strains); assay: MIC range, broader panel of Quotient Bioresearch strains (Table 3); settings: Streptococcus pneumoniae
[9] = test system: Enterococcus faecalis (5 strains); assay: as above
[10] = test system: Escherichia coli (6 strains); assay: MIC range, broader panel of Quotient Bioresearch strains (Table 4); assay type: cell-based
[11] = test system: Streptococcus pyogenes (4 strains); assay: MIC range, broader panel of Quotient Bioresearch strains (Table 3)
[12] = test system: Staphylococcus aureus (16 strains); assay: as above
[13] = test system: Haemophilus influenza (5 strains); assay: MIC range, broader panel of Quotient Bioresearch strains (Table 4); assay type: cell-based, Haemophilus influenzae
human topoisomerase I = target: T1, human topoisomerase I (Homo sapiens, UniProt P11387); assay: Inhibition of topoisomerases activity in vitro, Topogen protocol TG1015 (Table 7); assay type: biochemical; settings: read-out: IC50 hTopo I Assay
T1 construct: purchased Topogen Inc., Port Orange, USA TG1015
T1 sequence (P11387 1-765): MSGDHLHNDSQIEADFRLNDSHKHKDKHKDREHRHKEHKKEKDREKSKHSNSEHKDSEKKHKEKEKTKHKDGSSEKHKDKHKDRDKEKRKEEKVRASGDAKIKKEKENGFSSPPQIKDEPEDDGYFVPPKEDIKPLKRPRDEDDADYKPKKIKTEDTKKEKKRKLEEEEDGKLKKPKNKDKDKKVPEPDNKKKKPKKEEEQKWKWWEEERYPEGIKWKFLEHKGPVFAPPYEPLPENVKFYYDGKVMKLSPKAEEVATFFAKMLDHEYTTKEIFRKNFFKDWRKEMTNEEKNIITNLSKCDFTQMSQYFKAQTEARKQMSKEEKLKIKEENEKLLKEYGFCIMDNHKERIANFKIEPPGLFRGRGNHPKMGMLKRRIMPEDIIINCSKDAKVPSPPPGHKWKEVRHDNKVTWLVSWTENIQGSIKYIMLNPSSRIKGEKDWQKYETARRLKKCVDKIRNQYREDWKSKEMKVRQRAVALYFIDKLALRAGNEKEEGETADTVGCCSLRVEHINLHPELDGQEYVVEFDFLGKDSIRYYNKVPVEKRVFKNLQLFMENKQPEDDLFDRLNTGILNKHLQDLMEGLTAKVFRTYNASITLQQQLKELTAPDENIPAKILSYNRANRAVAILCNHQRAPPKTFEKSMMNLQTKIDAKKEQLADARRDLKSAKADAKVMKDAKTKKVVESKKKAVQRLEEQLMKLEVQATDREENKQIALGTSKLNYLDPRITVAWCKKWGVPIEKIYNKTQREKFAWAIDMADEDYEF

[14] = test system: Burkholderia cepacia (5 strains); assay: MIC range, broader panel of Quotient Bioresearch strains (Table 4); assay type: cell-based
bacterial gyrase = bacterial gyrase (Escherichia coli, UniProt P0AES4+P0AES6); assay: Inhibition of topoisomerases activity in vitro, Topogen protocol TG1003 (Table 7); assay type: biochemical
Chain of bacterial gyrase (P0AES4 whole entry, one chain of several): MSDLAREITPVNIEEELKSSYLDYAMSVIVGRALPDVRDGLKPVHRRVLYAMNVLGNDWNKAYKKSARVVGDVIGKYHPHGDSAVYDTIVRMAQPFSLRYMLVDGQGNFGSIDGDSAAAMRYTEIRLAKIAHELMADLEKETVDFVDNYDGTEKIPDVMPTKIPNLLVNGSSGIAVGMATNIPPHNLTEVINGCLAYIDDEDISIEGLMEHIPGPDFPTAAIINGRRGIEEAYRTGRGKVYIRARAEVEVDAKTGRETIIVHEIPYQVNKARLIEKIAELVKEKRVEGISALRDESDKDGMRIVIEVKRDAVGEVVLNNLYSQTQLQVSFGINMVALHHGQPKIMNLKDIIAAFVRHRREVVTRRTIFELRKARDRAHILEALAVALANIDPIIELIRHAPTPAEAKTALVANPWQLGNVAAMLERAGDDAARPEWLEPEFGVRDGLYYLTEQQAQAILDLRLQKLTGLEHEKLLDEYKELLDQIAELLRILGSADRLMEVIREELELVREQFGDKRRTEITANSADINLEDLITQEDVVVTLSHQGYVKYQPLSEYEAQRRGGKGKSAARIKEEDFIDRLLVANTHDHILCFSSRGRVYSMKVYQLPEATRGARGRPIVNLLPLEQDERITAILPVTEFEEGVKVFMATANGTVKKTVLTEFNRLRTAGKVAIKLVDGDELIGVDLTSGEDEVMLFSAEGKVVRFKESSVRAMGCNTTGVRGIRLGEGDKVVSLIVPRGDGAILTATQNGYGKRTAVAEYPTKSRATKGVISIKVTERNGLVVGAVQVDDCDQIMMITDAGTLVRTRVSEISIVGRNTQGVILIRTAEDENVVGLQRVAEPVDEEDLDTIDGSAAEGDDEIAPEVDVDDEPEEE

[15] = test system: Group C Streptococcus (4 strains); assay: MIC range, broader panel of Quotient Bioresearch strains (Table 3)

Work on `Cc1c(-c2cc(F)c(N)cc2F)ccn2c(=O)c(C(=O)[O-])cc(C3CC3)c12.[K+]` [Example 28 K salt, potassium 8-(4-amino-2,5-difluoro-phenyl)-1-cyclopropyl-9-methyl-4-oxo-4H-quinolizine-3-carboxylate] yielded an MIC ([1]; read-out: MIC Range High, Acinetobacter baumannii (12 strains)) of 16 µg/mL, an MIC ([1]; read-out: MIC Range Low, Acinetobacter baumannii (12 strains)) of 0.06 µg/mL and an MIC50 ([1]; read-out: MIC Range Median, Acinetobacter baumannii (12 strains)) of 8 µg/mL. For the same molecule, the “Mean Parent Remaining” value ([2]; Liver microsomes + S9, human) was 93%, the “Mean Parent Remaining” value ([2]; Liver microsomes + S9, mouse) was 48% and the “Mean Parent Remaining” value ([2]; Liver microsomes, human) was 97%. For the same molecule, the “Mean Parent Remaining” value ([2]; Liver microsomes, mouse) was 30%, the MIC ([3]; read-out: MIC Range Low, Enterococcus faecium (3 strains)) was 0.12 µg/mL and the MIC50 ([3]; read-out: MIC Range Median, Enterococcus faecium (3 strains)) was 0.25 µg/mL. For the same molecule, the IC50 [4] was at most 8.45 µM, the MIC ([5]; read-out: MIC Range High, Klebsiella pneumonia (4 strains)) was over 32 µg/mL and the MIC ([5]; read-out: MIC Range Low, Klebsiella pneumonia (4 strains)) was 0.12 µg/mL. It also gave an MIC50 ([5]; read-out: MIC Range Median, Klebsiella pneumonia (4 strains)) of 18 µg/mL, a solubility at 24 h (physchem; fassgf or other biorelevant) of 153 µM and a solubility at 24 h (physchem; pH 7.4, aqueous buffer) of 6 µM. The solubility at 24 h (physchem; simulated gastric fluid) was 12 µM, the MIC ([6]; read-out: MIC Range High, Pseudomonas aeruginosa (12 strains)) was over 32 µg/mL and the MIC ([6]; read-out: MIC Range Low, Pseudomonas aeruginosa (12 strains)) was 1 µg/mL. The MIC50 ([6]; read-out: MIC Range Median, Pseudomonas aeruginosa (12 strains)) was 6 µg/mL, the MIC [7] was 2 µg/mL and the MIC ([8]; read-out: MIC Range Low, Streptococcus pneumonia (5 strains)) was 0.03 µg/mL. It also gave an MIC50 ([8]; read-out: MIC Range Median, Streptococcus pneumonia (5 strains)) of 0.06 µg/mL, an MIC ([9]; read-out: MIC Range High, Enterococcus faecalis (5 strains)) of 0.5 µg/mL and an MIC ([9]; read-out: MIC Range Low, Enterococcus faecalis (5 strains)) of at most 0.015 µg/mL. For the same molecule, the MIC50 ([9]; read-out: MIC Range Median, Enterococcus faecalis (5 strains)) was 0.25 µg/mL, the MIC ([10]; read-out: MIC Range High, Escherichia coli (6 strains)) was 32 µg/mL and the MIC ([10]; read-out: MIC Range Low, Escherichia coli (6 strains)) was 0.03 µg/mL. It also gave an MIC50 ([10]; read-out: MIC Range Median, Escherichia coli (6 strains)) of 16 µg/mL, an MIC ([11]; read-out: MIC Range High, Streptococcus pyogenes (4 strains)) of 0.06 µg/mL and an MIC ([11]; read-out: MIC Range Low, Streptococcus pyogenes (4 strains)) of 0.03 µg/mL. It also gave an MIC50 ([11]; read-out: MIC Range Median, Streptococcus pyogenes (4 strains)) of 0.06 µg/mL, an MIC ([12]; read-out: MIC Range High, Staphylococcus aureus (16 strains)) of 0.12 µg/mL and an MIC ([12]; read-out: MIC Range Low, Staphylococcus aureus (16 strains)) of at most 0.015 µg/mL. For the same molecule, the MIC50 ([12]; read-out: MIC Range Median, Staphylococcus aureus (16 strains)) was 0.06 µg/mL, the MIC50 ([13]; 16 h, Median of the strain panel) was at most 0.015 µg/mL and the MIC ([13]; High of the strain panel, read-out: MIC Range High, Haemophilus influenza (5 strains)) was at most 0.015 µg/mL. For the same molecule, the MIC ([13]; Low of the strain panel, read-out: MIC Range Low, Haemophilus influenza (5 strains)) was at most 0.015 µg/mL, the IC50 (human topoisomerase I) was 135 µM and the MIC ([14]; read-out: MIC Range High, Burkholderia cepacia (5 strains)) was 0.5 µg/mL. For the same molecule, the MIC ([14]; read-out: MIC Range Low, Burkholderia cepacia (5 strains)) was 0.12 µg/mL, the MIC50 ([14]; read-out: MIC Range Median, Burkholderia cepacia (5 strains)) was 0.25 µg/mL and the IC50 (bacterial gyrase) was 0.68 µM. The MIC ([15]; read-out: MIC Range High, Group C Streptococcus (4 strains)) was 0.06 µg/mL, the MIC ([15]; read-out: MIC Range Low, Group C Streptococcus (4 strains)) was 0.03 µg/mL and the MIC50 ([15]; read-out: MIC Range Median, Group C Streptococcus (4 strains)) was 0.045 µg/mL.
